Test results taken from article PMC12973313 (Chemical Science, 2026).
Converted amounts (≈) assume the structure as drawn. “And” between values parts separate entries of the source, which are not always exact repeats. Equal entries are not always repeated. Where two headings read alike, the source gives them in different places.

How the values were obtained:
[1] = test system: S. aureus USA300; experiment: MIC assay; assay type: cell-based; details: Staphylococcus aureus
Protocol: (§1) Next generation SSAs 3, 5, 7, and 9 were specifically designed to increase the activity of SSAs against both drug susceptible and resistant S. aureus and ovarian cancer cells. […] These strains include: (i) USA300, a common clinically relevant, methicillin resistant strain;[47] […]
(§2) Section S3: Biological methods […]
(§3) Preparation of bacterial plates : Sterile TSB agar plates were streaked using the desired […]
(§4) Preparation of inoculum: An initial culture was made up by inoculating TSB (5 mL) with 3 single colonies of the desired bacteria under sterile conditions and incubated at 37 °C overnight. The optical density at 600 nm (OD 600) was adjusted using sterile distilled H 2O (dH2O) to equal ~1 x 10^6 bacteria/mL.
(§5) Preparation of 96 -well microplate : A solution of each compound in H2O/5 % EtOH was made […]
(§6) The compound solution (200 […]
(§7) µL) was added to and diluted 50:50 down the plate. The bacterial suspension (100 µL) was dispensed into each well under sterile conditions. […]

[2] = test system: E. Faecium NCTC 12204; experiment: MIC assay; assay type: cell-based; details: Enterococcus faecium, NCTC12204; lowest concentration with no visible growth
Protocol: as §2
(§8) Preparation of bacterial plates : Sterile TSB agar plates were streaked using the desired bacteria [Staphylococcus aureus (9144, 13616, USA 300 and 1199B ), Enterococcus faecalis (NCTC 775 and 12201 ) and Enterococcus faecium (NCTC 12204)] and incubated at 37 °C […]
as §4, §5
(§9) . The compound solution (200
(§10) […]. The bacterial suspension (100 µL) was dispensed into each well under sterile conditions. The plates were sealed using parafilm and incubated at 37 °C for 20 hours, after which the OD 600 was measured.

[3] = test system: E. Faecalis NCTC 12201; experiment: MIC assay; assay type: cell-based; details: Enterococcus faecalis, NCTC12201; lowest concentration with no visible growth
Protocol: as §2, §8, §4, §5, §9, §10

[4] = test system: S. aureus NCTC 13616; experiment: MIC assay; assay type: cell-based, Staphylococcus aureus
Protocol: as §1, §2, §3, §4, §5, §6, §7

[5] = test system: S. aureus ATCC 9144; experiment: MIC assay; assay type: cell-based, Staphylococcus aureus
Protocol: as §1, §2, §3, §4, §5, §6, §7

[6] = 1H NMR DOSY, DMSO-d6 0.5% H2O; assay type: physicochemical; details: 298 K; for dH (nm), hydrodynamic diameter, anionic component: 1H NMR DOSY, DMSO-d6 0.5% H2O, 112 mM; for Hydrodynamic diameter (nm) Cationic component: DMSO-d6/0.5 % H2O
[7] = Quantitative 1H NMR, DMSO-d6 1% DCM (self-association); assay type: physicochemical; details: 112 mM, 298 K, proportion NMR silent
Text: Initially, quantitative (Q) ^1H NMR spectroscopy experiments were undertaken in DMSO-d6 1% DCM, using the DCM as an internal standard to identify the presence of either low or high order SSA self-associated aggregates. Here, low-order SSA self-associated aggregates are defined as those directly observable using traditional solution state ^1H NMR spectroscopy such as the formation of hydrogen bonded anionic dimers. To determine the presence of low or high-order SSA aggregates, signals corresponding to the anionic or cationic component of the SSA are integrated against those of the internal DCM standard.

[8] = USA300, 15 h, total molecular concentration, after 900 min, read-out: MIC USA300
[9] = USA300, lowest concentration with no visible growth, read-out: MIC (mM) S. aureus USA 300
[10] = Staphylococcus aureus, NCTC13616, 15 h, total molecular concentration, after 900 min, read-out: MIC NCTC 13616
[11] = Staphylococcus aureus, NCTC13616, lowest concentration with no visible growth, read-out: MIC (mM) S. aureus 13616
[12] = Staphylococcus aureus, ATCC9144, 15 h, total molecular concentration, after 900 min, read-out: MIC ATCC 9144
[13] = Staphylococcus aureus, ATCC9144, lowest concentration with no visible growth, read-out: MIC (mM) S. aureus 9144

O=C(O)CNC(=O)Nc1ccc(C(F)(F)F)cc1 [SSA 1]
MIC [1, 8]: > 2.78 mM | MIC [1, 9]: > 2.78 mM | MIC [2]: > 2.78 mM | MIC [3]: > 2.78 mM | MIC [4, 10]: > 2.78 mM | MIC [4, 11]: > 2.78 mM | MIC [5, 12]: 1.39 mM (≈ 364 µg/mL) | MIC [5, 13]: 1.39 mM (≈ 364 µg/mL)

CC(C)CC(NC(=O)Nc1ccc(C(F)(F)F)cc1)C(=O)O (stereo not shown) [SSA 3]
dH (nm), hydrodynamic diameter, anionic component ([6]; listed as 3): 1.66 nm and 1.7 nm | Hydrodynamic diameter (nm) Cationic component ([6]; listed as 3): 1.26 nm | MIC [1, 8]: > 2.78 mM | MIC [2]: > 2.78 mM | MIC [3]: > 2.78 mM | Q NMR (%) SSA anion [7]: 0% | Q NMR (%) SSA cation [7]: 0% | MIC [4, 10]: 0.087 mM (≈ 27.7 µg/mL) | MIC [4, 11]: 0.087 mM (≈ 27.7 µg/mL) | MIC [5, 12]: 0.087 mM (≈ 27.7 µg/mL) | MIC [5, 13]: 0.087 mM (≈ 27.7 µg/mL)

CC(C)CC(NC(=O)Nc1ccc(C(F)(F)F)cc1)C(=O)O (stereo not shown) [SSA 5]
dH (nm), hydrodynamic diameter, anionic component ([6]; listed as 5): 1.70 nm and 1.7 nm | Hydrodynamic diameter (nm) Cationic component ([6]; listed as 5): 1.28 nm | MIC (mM) S. aureus 13616 ([4]; lowest concentration with no visible growth): 0.087 mM (≈ 27.7 µg/mL) | MIC ([4]; total molecular concentration, after 900 min, read-out: MIC NCTC 13616): 0.087 mM (≈ 27.7 µg/mL) | MIC (mM) S. aureus 9144 ([5]; lowest concentration with no visible growth, listed as 5): 0.174 mM (≈ 55.4 µg/mL) | MIC ([5]; total molecular concentration, after 900 min, listed as 5, read-out: MIC ATCC 9144): 0.174 mM (≈ 55.4 µg/mL)

O=C(Nc1ccc(C(F)(F)F)cc1)N[C@@H](Cc1ccccc1)C(=O)O [SSA 7]
dH (nm), hydrodynamic diameter, anionic component [6]: 1.70 nm and 1.7 nm | Hydrodynamic diameter (nm) Cationic component [6]: 1.27 nm | MIC [1, 8]: 0.087 mM (≈ 30.7 µg/mL) | MIC [1, 9]: 0.087 mM (≈ 30.7 µg/mL) | MIC [2]: > 2.78 mM | MIC [3]: > 2.78 mM | Q NMR (%) SSA anion [7]: 0% | Q NMR (%) SSA cation [7]: 0% | MIC [4, 10]: 0.087 mM (≈ 30.7 µg/mL) | MIC [4, 11]: 0.087 mM (≈ 30.7 µg/mL) | MIC [5, 12]: 0.087 mM (≈ 30.7 µg/mL) | MIC [5, 13]: 0.087 mM (≈ 30.7 µg/mL)

O=C(Nc1ccc(C(F)(F)F)cc1)N[C@H](Cc1ccccc1)C(=O)O [SSA 9]
dH (nm), hydrodynamic diameter, anionic component [6]: 1.67 nm and 1.7 nm | Hydrodynamic diameter (nm) Cationic component [6]: 1.24 nm | MIC [1, 8]: 0.087 mM (≈ 30.7 µg/mL) | MIC [1, 9]: 0.087 mM (≈ 30.7 µg/mL) | MIC [2]: > 2.78 mM | MIC [3]: > 2.78 mM | Q NMR (%) SSA anion [7]: 0% | Q NMR (%) SSA cation [7]: 0% | MIC [4, 10]: 0.087 mM (≈ 30.7 µg/mL) | MIC [4, 11]: 0.087 mM (≈ 30.7 µg/mL) | MIC [5, 12]: 0.174 mM (≈ 61.3 µg/mL) | MIC [5, 13]: 0.174 mM (≈ 61.3 µg/mL)
